In patent publication US9567327B2, “Imidazo[1,2-a]pyridine derivatives as modulators of the 5-HT2A serotonin receptor useful for the treatment of disorders related thereto” (Arena Pharmaceuticals, Inc., priority 2007, dated 2017):

Legend:
normal volunteers = test: APD125 Phase 1 trials / afternoon nap model of insomnia in normal volunteers; format: in vivo, human
From the text: APD125, a potent and selective 5-HT2A serotonin receptor inverse agonist is a member of the genus disclosed in the European Patent EP1558582. […] These effects occurred at the expense of REM sleep. Sleep onset latency was not decreased by APD125.

diabetic rats = details: cited from earlier work
[1] = target: human 5-HT2A serotonin receptor (Homo sapiens (Human), UniProt P28223); details: 0.5 nM [125I]DOI, COS7 membranes with recombinant human 5-HT2A; read-out: IC50 DOI Binding Assay
[2] = test system: DOI-induced hypolocomotion in rats; test: Attenuation of DOI-induced hypolocomotion in rats; format: in vivo, rat; details: male Sprague-Dawley rats, compound 1-10 mg/kg p.o., DOI 1 mg/kg s.c.
Protocol: In this example, compounds of the invention were tested for inverse agonist activity by determining whether these compounds could attenuate DOI-induced hypolocomotion in rats in a novel environment. DOI is a potent 5-HT2A/2C receptor agonist that crosses the blood-brain barrier. The standard protocol used is described briefly below.
Male Sprague-Dawley rats weighing between 200-350 g were used for all tests. Rats were housed three to four per cage.
(R)-DOI HCl (C11H16INO2.HCl) was obtained from Sigma-Aldrich and was dissolved in 0.9% saline. Compounds of the invention were synthesized at Arena Pharmaceuticals Inc., San Diego, Calif. and were dissolved in 100% PEG400. DOI was injected s.c. in a volume of 1 mL/kg, while compounds of the invention were administered p.o. in a volume of 1 mL/kg.
The “Motor Monitor” (Hamilton-Kinder, Poway, Calif.) was used for all activity measurement. This apparatus recorded rears using infrared photobeams. […]
In determining the effects of compounds of the invention on DOI-induced hypoactivity, animals were first injected with vehicle or the compound of the invention (1-10 mg/kg) in their home cages. […] Ten minutes after DOI administration, animals were placed into the activity apparatus and rearing activity was measured for 10 min.
Results (total rears over 10 min) were analyzed by t-test. […]

[3] = test system: DOCA-salt induced hypertension in rats; details: cited from earlier work
JC virus = details: cited from earlier work
heatstroke = details: in vivo; cited from earlier work
glaucoma patients = details: cited from earlier work
[4] = test system: spontaneously hypertensive rats; details: cited from earlier work
humans = details: sciatica from lumbar disc herniation; cited from earlier work
diabetic nephropathy = details: patients, 24 months of treatment; cited from earlier work
rats = details: thermal induced pain i.p., inflammatory pain intrathecal or i.p.; cited from earlier work

## COc1ccc(NC(=O)Nc2ccc(F)cc2F)cc1-c1c(Br)cnn1C [APD125]
Normal volunteers; Phase 1 trials, maximal effects at 40-80 mg
  effect on waking EEG: vigilance-lowering effects
Normal volunteers; afternoon nap model
  microarousals, sleep stage shifts and awakenings after sleep onset: decreased microarousals, the number of sleep stage shifts and number of awakenings after sleep onset
Normal volunteers; afternoon nap model of insomnia, normal volunteers
  slow wave sleep and associated parameters: increased slow wave sleep and associated parameters in a dose-dependent manner
Normal volunteers; afternoon nap model, normal volunteers
  sleep onset latency: not decreased

## O=CN1CCC(C(=O)NCCN2CCC(=C3c4ccccc4C=Cc4ccccc43)CC2)CC1 [AT-1015]
Diabetic rats
  correction of a 19.8% sciatic motor conduction deficit: 82.6-99.7%

## O=C(c1cccn2cc(-c3ccccc3)nc12)N1CCN(CCc2ccc(F)cc2)CC1 [Compound 9, (4-(4-Fluorophenethyl)piperazin-1-yl)(2-phenylimidazo[1,2-α]pyridin-8-yl)methanone]
[1]
  IC50: 46 nM

## O=C(c1cccn2ccnc12)N1CCN(CC(F)c2ccc(F)cc2)CC1 (stereo not drawn) [Compound 10, (4-(2-Fluoro-2-(4-fluorophenyl)ethyl)piperazin-1-yl)(imidazo[1,2-α]pyridin-8-yl)methanone]
[1]
  IC50: 10 nM

## O=C(c1cccn2ccnc12)N1CCN(CCc2ccccc2F)CC1 [Compound 18, (4-(2-Fluorophenethyl)piperazin-1-yl)(imidazo[1,2-α]pyridin-8-yl)methanone]
[2]
  attenuation of DOI-induced hypolocomotion (total rears over 10 min): attenuated DOI-induced hypolocomotion

## O=C(c1cccn2ccnc12)N1CCN(CCc2ccc(Cl)cc2Cl)CC1 [Compound 19, (4-(2,4-Dichlorophenethyl)piperazin-1-yl)(imidazo[1,2-α]pyridin-8-yl)methanone]
[2]
  attenuation of DOI-induced hypolocomotion (total rears over 10 min): attenuated DOI-induced hypolocomotion

## CN1CCN2c3ccccc3Cc3ccccc3C2C1 (stereo not drawn) [Mainserin]
[3]
  DOCA-salt induced hypertension: prevent DOCA-salt induced hypertension

## O=C(c1ccc(F)cc1)C1CCN(CCn2c(=O)[nH]c3ccccc3c2=O)CC1 [ketanserin]
JC virus
  JC virus infection of human glial cells: inhibited JC virus infection of human glial cells
heatstroke
  protection during heatstroke: protect against circulatory shocks, intracranial hypertension and cerebral ischemia during heatstroke
Glaucoma patients
  intra ocular pressure (IOP): significantly lower IOP
[4]
  blood pressure: stabilize blood pressure

## Cc1nc2sccn2c(=O)c1CCN1CCC(=C(c2ccc(F)cc2)c2ccc(F)cc2)CC1 [ritanserin]
Diabetic rats
  correction of a 19.8% sciatic motor conduction deficit: 82.6-99.7%
JC virus
  JC virus infection of human glial cells: inhibited JC virus infection of human glial cells

## COc1cccc(CCc2ccccc2OCC(CN(C)C)OC(=O)CCC(=O)O)c1 (stereo not drawn) [sarpogrelate]
humans
  treatment of lower back pain, leg pain and numbness: effective treatment
Diabetic nephropathy
  urinary albumin excretion level: significantly reduced
Diabetic rats
  correction of a 19.8% sciatic motor conduction deficit: 82.6-99.7%
rats
  analgesic effect: significant analgesic effect
Glaucoma patients
  intra ocular pressure (IOP): significantly lower IOP
